# Reference: US8846710B2, “Method of preferentially inducing the biosynthesis of interferon” (3M Innovative Properties Company, priority 2005, dated 2014)
# Columns and labels:
# interferon (α) (IFN-α) = experiment: Cytokine induction in human cells: IFN-α secreted by PBMC into culture media (ELISA); type: cell-based; details: for Maximal Response IFN / Minimum Effective Concentration IFN / minimal effective concentration: human PBMC; for Maximal Response IFN / Minimum Effective Concentration IFN: median where tested in more than one experiment; for minimal effective concentration: lowest tested concentration inducing IFN-α over usually 20 pg/mL, median where more than one experiment, read-out: Minimum Effective Concentration (μM) IFN; for Maximal Response (pg/mL) IFN: maximal response in dose response curve, median
# Procedure, shortened: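 IFN-α secreted by density-gradient-isolated PBMC (final 2×10^6 cells/mL) was quantified by ELISA after 18–24 h compound exposure at 37 °C, typically 30-0.014 μM in 3-fold steps with ≤1% DMSO. Readings corrected for background and reference-compound variability; lowest concentration above usually 20 pg/mL reported, plus maximal response (pg/mL).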
# [1] = tested on: tumor necrosis factor (α) (TNF-α); experiment: Cytokine induction in human cells: TNF-α secreted by PBMC into culture media (ORIGEN M-Series immunoassay); type: cell-based; set-up: key to Maximal Response (pg/mL) TNF / Maximal Response TNF: If any negative values result from background subtraction, the reading is reported as “*”, and is noted as not reliably detectable; details: for Maximal Response TNF / Minimum Effective Concentration TNF / minimal effective concentration: human PBMC; for Maximal Response TNF / Maximal Response (pg/mL) TNF: median; for Minimum Effective Concentration TNF: median where tested in more than one experiment; for minimal effective concentration: lowest tested concentration inducing TNF-α over usually 40 pg/mL, median where more than one experiment, read-out: Minimum Effective Concentration (μM) TNF; for Maximal Response (pg/mL) TNF: maximal response in dose response curve
# Procedure, shortened: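 Secreted TNF-α (pg/mL) was quantified by ORIGEN M-Series immunoassay after 18 to 24 hours culture at 37° C of human PBMC (2×10^6 cells/mL final) with test compound (usually 30-0.014 μM, 3-fold series, DMSO ≤1%). Values were corrected for DMSO or experimental background and a reference-compound ratio, giving a minimum effective concentration.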
# [2] = Table 11, * = TNF below experimental background of 40 pg/mL
# [3] = Table 12, * = below the experimental background of 40 pg/mL
# [4] = Table 10, * = below experimental background level
# [5] = Table 7, background-subtracted, reference-adjusted
Structure (SMILES),Maximal Response IFN (interferon (α) (IFN-α); Table 11),"Maximal Response TNF [1, 2]",Minimum Effective Concentration IFN (interferon (α) (IFN-α); Table 11),Minimum Effective Concentration TNF ([1]; Table 11),other results
"CC(C)(Cn1c(CO)nc2c(N)nc3ccccc3c21)CS(C)(=O)=O [Example 364, {4-Amino-1-[2,2-dimethyl-3-(methylsulfonyl)propyl]-1H-imidazo[4,5-c]quinolin-2-yl}methanol]",5343 pg/mL,164 pg/mL,,,
"CC(C)(F)Cn1c(CCO)nc2c(N)nc3cccnc3c21 [Example 552, 2-[4-Amino-1-(2-fluoro-2-methylpropyl)-1H-imidazo[4,5-c][1,5]naphthyridin-2-yl]ethanol]",,,,,"Maximal Response IFN (interferon (α) (IFN-α); Table 12): 1646 pg/mL; Maximal Response TNF [1, 3]: 84 pg/mL"
CCOCc1nc2c(N)nc3ccccc3c2n1CC(C)(C)CS(C)(=O)=O [Analog 124],1924 pg/mL,9513 pg/mL,0.12 µM,0.37 µM,
COCCc1nc2c(N)nc3ccccc3c2n1CCCNC(=O)NC(C)C [Analog 83],1289 pg/mL,1259 pg/mL,0.12 µM,1.11 µM,
CCCC(=O)NCCCCn1c(CCC)nc2c(N)nc3cc(-c4cccnc4)ccc3c21 [Analog 32],,,,,"minimal effective concentration (interferon (α) (IFN-α); Table 10): 0.12 µM; Maximal Response (pg/mL) IFN (interferon (α) (IFN-α); [4]): 862 pg/mL; minimal effective concentration ([1]; Table 10): 0.37 µM; Maximal Response (pg/mL) TNF [1, 4]: 1647 pg/mL"
"CCCc1nc2c(N)nc3cc(-c4cccnc4)ccc3c2n1CC(C)(C)O [Analog 9, 1-(4-amino-2-propyl-7-pyridin-3-yl-1H-imidazo[4,5-c]quinolin-1-yl)-2-methylpropan-2-ol]",,,,,"Maximal Response (pg/mL) IFN (interferon (α) (IFN-α); Table 9, background-subtracted, reference-adjusted): 597 pg/mL; Maximal Response (pg/mL) IFN (interferon (α) (IFN-α); [4]): 597 pg/mL; Maximal Response (pg/mL) TNF ([1]; Table 9, * = below experimental background level of 40 pg/mL): 3951 pg/mL; Maximal Response (pg/mL) TNF [1, 4]: 3951 pg/mL"
CCCc1nc2c(N)nc3ccccc3c2n1CC(C)(C)CNS(C)(=O)=O [Analog 65],1711 pg/mL,1929 pg/mL,0.12 µM,10 µM,
"CCCc1nc2c(N)nc3ccccc3c2n1CC(C)(C)NS(C)(=O)=O [Analog 3, N-[2-(4-Amino-2-propyl-1H-imidazo[4,5-c]quinolin-1-yl)-1,1-dimethylethyl]methanesulfonamide]",,9780 pg/mL,,,"Maximal Response (pg/mL) IFN (interferon (α) (IFN-α); [5]): 832 pg/mL; Maximal Response (pg/mL) TNF [1, 5]: 7245 pg/mL"
CC(C)(CNC(=O)c1ccccc1)Cn1c(CCO)nc2c(N)nc3ccccc3c21 [Example 124],3980 pg/mL,1446 pg/mL,0.12 µM,3.33 µM,
Cc1ccc(-c2ccc3c(c2)nc(N)c2nc(CO)n(CC(C)(C)O)c23)cc1 [Example 165],,,,,minimal effective concentration (interferon (α) (IFN-α); Table 10): 0.37 µM; minimal effective concentration ([1]; Table 10): 0.37 µM
Cc1nc2c(N)nc3ccccc3c2n1CCCCNS(C)(=O)=O [Analog 48],7293 pg/mL,526 pg/mL,0.12 µM,10 µM,
CCOCc1nc2c(N)nc3cc(-c4cccnc4)ccc3c2n1CC1CCN(C(=O)C(C)C)CC1 [Analog 18],,,,,"minimal effective concentration (interferon (α) (IFN-α); Table 10): 0.12 µM; Maximal Response (pg/mL) IFN (interferon (α) (IFN-α); [4]): 2979 pg/mL; minimal effective concentration ([1]; Table 10): 0.37 µM; Maximal Response (pg/mL) TNF [1, 4]: 1449 pg/mL"
"Cc1nc2c(N)nc3cccnc3c2n1CC(C)(C)F [Analog 131, 1-(2-fluoro-2-methylpropyl)-2-methyl-1H-imidazo[4,5-c][1,5]naphthyridin-4-amine]",,,,,"Maximal Response IFN (interferon (α) (IFN-α); Table 12): 2120 pg/mL; Maximal Response TNF [1, 3]: 1679 pg/mL"
COCCc1nc2c(N)nc3cc(-c4cccnc4)ccc3c2n1CC(C)(C)O [Analog 12],,,,,"minimal effective concentration (interferon (α) (IFN-α); Table 10): 0.014 µM; Maximal Response (pg/mL) IFN (interferon (α) (IFN-α); [4]): 1065 pg/mL; minimal effective concentration ([1]; Table 10): 0.014 µM; Maximal Response (pg/mL) TNF [1, 4]: 8386 pg/mL"
"CCc1nc2c(N)nc3ccccc3c2n1CC(C)(C)NS(C)(=O)=O [Analog 2, N-[2-(4-Amino-2-ethyl-1H-imidazo[4,5-c]quinolin-1-yl)-1,1-dimethylethyl]methanesulfonamide]",1096 pg/mL,9675 pg/mL,,,"Maximal Response (pg/mL) IFN (interferon (α) (IFN-α); [5]): 831 pg/mL; Maximal Response (pg/mL) TNF [1, 5]: 3670 pg/mL"
CCOCc1nc2c(N)nc3cc(-c4cccnc4)ccc3c2n1CCCCNC(=O)C(C)C [Analog 37],,,,,"minimal effective concentration (interferon (α) (IFN-α); Table 10): 0.12 µM; Maximal Response (pg/mL) IFN (interferon (α) (IFN-α); [4]): 1194 pg/mL; minimal effective concentration ([1]; Table 10): 1.11 µM; Maximal Response (pg/mL) TNF [1, 4]: 728 pg/mL"
"Cc1nc2c(N)nc3ccccc3c2n1CC(C)(C)NS(C)(=O)=O [Analog 1, N-[2-(4-Amino-2-methyl-1H-imidazo[4,5-c]quinolin-1-yl)-1,1-dimethylethyl]methanesulfonamide]",,,,,"Maximal Response (pg/mL) IFN (interferon (α) (IFN-α); [5]): 1846 pg/mL; Maximal Response (pg/mL) TNF [1, 5]: 1518 pg/mL"
CCOCc1nc2c(N)nc3ccccc3c2n1CCCCNS(C)(=O)=O [Analog 51],2581 pg/mL,1439 pg/mL,0.04 µM,1.11 µM,
CCCNC(=O)NCCCCn1c(CCC)nc2c(N)nc3cc(-c4cccnc4)ccc3c21 [Analog 30],,,,,"minimal effective concentration (interferon (α) (IFN-α); Table 10): 0.37 µM; Maximal Response (pg/mL) IFN (interferon (α) (IFN-α); [4]): 531 pg/mL; minimal effective concentration ([1]; Table 10): 0.37 µM; Maximal Response (pg/mL) TNF [1, 4]: 5284 pg/mL"
CCCCNC(=O)NCCCn1c(COCC)nc2c(N)nc3ccccc3c21 [Analog 97],827 pg/mL,963 pg/mL,0.37 µM,3.33 µM,
CCCc1nc2c(N)nc3ccccc3c2n1CCCNC(=O)NC(C)C [Analog 82],6571 pg/mL,3740 pg/mL,0.12 µM,1.11 µM,
CCCCNC(=O)NCCCn1c(CCOC)nc2c(N)nc3ccccc3c21 [Analog 98],5915 pg/mL,6169 pg/mL,0.014 µM,0.04 µM,
"CC(C)(Cn1c(CO)nc2c(N)nc3cccnc3c21)NC(=O)C1CCCCC1 [Example 143, N-[2-(4-Amino-2-hydroxymethyl-1H-imidazo[4,5-c][1,5]naphthyridin-1-yl)-1,1-dimethylethyl]cyclohexanecarboxamide]",,,,,"Maximal Response IFN (interferon (α) (IFN-α); Table 12): 1467 pg/mL; Maximal Response TNF [1, 3]: 798 pg/mL"
Cc1nc2c(N)nc3ccccc3c2n1CCCNC(=O)NC(C)C [Analog 81],1134 pg/mL,490 pg/mL,3.33 µM,10 µM,
COCCc1nc2c(N)nc3ccccc3c2n1CCCCNS(=O)(=O)c1ccc(F)cc1 [Analog 113],6032 pg/mL,3786 pg/mL,0.014 µM,0.04 µM,
CC(C)C(=O)NCCCCn1c(CO)nc2c(N)nc3cc(-c4cccnc4)ccc3c21 [Example 199],,,,,"Maximal Response (pg/mL) IFN (interferon (α) (IFN-α); [4]): 5880 pg/mL; Maximal Response (pg/mL) TNF [1, 4]: 217 pg/mL"
Nc1nc2ccccc2c2c1nc(CCO)n2CCCCNC(=O)N1CCOCC1 [Example 115],8361 pg/mL,*,1.11 µM,>30 µM,
COCCc1nc2c(N)nc3ccccc3c2n1CCCNS(=O)(=O)c1ccc(C)cc1 [Analog 109],638 pg/mL,6169 pg/mL,0.04 µM,0.37 µM,
